Source: patent US8791264B2 (Purdue Pharma L.P., priority 2006, dated 2014)

How the values were obtained:
[1] = target: T1, N-type calcium channel (NTCC) (Homo sapiens, UniProt Q00975); assay: FLIPR calcium mobilization assay for N-type calcium channel; format: cell-based; conditions: calcium mobilization in vitro assay; differentiated IMR32 cells
T1 construct: host or cells: IMR32 cells differentiated with dibutyryl cAMP and bromodeoxyuridine
How it was run: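 Differentiated IMR32 cells (8 days, dibutyryl cAMP and BrdU) loaded with 3 μM Fluo-4 during 90 mM KCl pre-stimulation, with compound at about 846 pM to 17 μM plus 5 μM nitrendipine. After washes in compound, FLIPR read basal fluorescence 315 s, then 45 s after KCl addition (final 90 mM).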

[2] = target: T2, recombinant rat L-type calcium channel (LTCC) subunits (α1c, α2δ, and β1) (Rattus norvegicus, UniProt P22002); assay: FLIPR calcium mobilization assay for L-type calcium channel; format: cell-based; conditions: calcium mobilization in vitro assay; HEK293 cells expressing rat LTCC
T2 construct: expressed in transfected cells
Procedure: Recombinant human embryonal kidney cells (HEK293, ATCC) stably transfected with either N-type calcium channel (NTCC) subunits (α1b, α2δ, and ⊖3) or L-type calcium channel (LTCC) subunits (α1, α2δ, and β1) were routinely cultured in growth medium consisting of Dulbecco's Modified Eagles Medium containing 10% FBS, 100 U/mL penicillin, 100 μg/mL streptomycin, 4 mM L-glutamine, 500 μg/mL geneticin (G418), 20 μg/mL Blasticidin S (InVivogen, San Diego, Calif.) and 500 μg/mL zeocin (InVivogen).
FLIPR Calcium Mobilization Assay for L-Type Calcium Channel.
One day prior to performing this assay, HEK293 cells stably expressing recombinant rat L-type calcium channel (LTCC) subunits (α1c, α2δ, and β1) were trypsinized, then seeded on poly-D-lysine-coated 96-well clear-bottom black plates (Becton Dickinson, Franklin Lakes, N.J.) at 75,000 cells/well. On the day of the assay, the plates were washed with LTCC wash buffer (127 mM NaCl, 2 mM MgCl2, 700 μM NaH2PO4, 5 mM CaCl2, 5 mM NaHCO3, 8 mM HEPES, 10 mM glucose, pH 7.4), then loaded with 0.1 mL of LTCC wash buffer containing Fluo-4 (3 μM final concentration, Molecular Probes, Eugene, Oreg.). After 1 hour, the cells were washed with 0.1 mL LTCC wash buffer and resuspended in 0.05 mL LTCC assay buffer (same composition as LTCC wash buffer). Plates were then transferred to a FLIPR^96 for assay. The FLIPR measured basal Fluo-4 fluorescence for 15 seconds, then is added 0.05 mL of each compound tested diluted in LTCC assay buffer at final concentrations ranging from about 846 pM to about 17 μM. Fluo-4 fluorescence was then measured for 5 minutes. 0.1 mL KCl agonist dissolved in LTCC assay buffer was then added to the cells to produce a final concentration of 90 mM KCl, and fluorescence was measured for another 45 seconds. Data were collected over the entire time course and analyzed using Excel, Graph Pad Prism, or an in-house regression analysis software.

T2 sequence (P22002 whole entry): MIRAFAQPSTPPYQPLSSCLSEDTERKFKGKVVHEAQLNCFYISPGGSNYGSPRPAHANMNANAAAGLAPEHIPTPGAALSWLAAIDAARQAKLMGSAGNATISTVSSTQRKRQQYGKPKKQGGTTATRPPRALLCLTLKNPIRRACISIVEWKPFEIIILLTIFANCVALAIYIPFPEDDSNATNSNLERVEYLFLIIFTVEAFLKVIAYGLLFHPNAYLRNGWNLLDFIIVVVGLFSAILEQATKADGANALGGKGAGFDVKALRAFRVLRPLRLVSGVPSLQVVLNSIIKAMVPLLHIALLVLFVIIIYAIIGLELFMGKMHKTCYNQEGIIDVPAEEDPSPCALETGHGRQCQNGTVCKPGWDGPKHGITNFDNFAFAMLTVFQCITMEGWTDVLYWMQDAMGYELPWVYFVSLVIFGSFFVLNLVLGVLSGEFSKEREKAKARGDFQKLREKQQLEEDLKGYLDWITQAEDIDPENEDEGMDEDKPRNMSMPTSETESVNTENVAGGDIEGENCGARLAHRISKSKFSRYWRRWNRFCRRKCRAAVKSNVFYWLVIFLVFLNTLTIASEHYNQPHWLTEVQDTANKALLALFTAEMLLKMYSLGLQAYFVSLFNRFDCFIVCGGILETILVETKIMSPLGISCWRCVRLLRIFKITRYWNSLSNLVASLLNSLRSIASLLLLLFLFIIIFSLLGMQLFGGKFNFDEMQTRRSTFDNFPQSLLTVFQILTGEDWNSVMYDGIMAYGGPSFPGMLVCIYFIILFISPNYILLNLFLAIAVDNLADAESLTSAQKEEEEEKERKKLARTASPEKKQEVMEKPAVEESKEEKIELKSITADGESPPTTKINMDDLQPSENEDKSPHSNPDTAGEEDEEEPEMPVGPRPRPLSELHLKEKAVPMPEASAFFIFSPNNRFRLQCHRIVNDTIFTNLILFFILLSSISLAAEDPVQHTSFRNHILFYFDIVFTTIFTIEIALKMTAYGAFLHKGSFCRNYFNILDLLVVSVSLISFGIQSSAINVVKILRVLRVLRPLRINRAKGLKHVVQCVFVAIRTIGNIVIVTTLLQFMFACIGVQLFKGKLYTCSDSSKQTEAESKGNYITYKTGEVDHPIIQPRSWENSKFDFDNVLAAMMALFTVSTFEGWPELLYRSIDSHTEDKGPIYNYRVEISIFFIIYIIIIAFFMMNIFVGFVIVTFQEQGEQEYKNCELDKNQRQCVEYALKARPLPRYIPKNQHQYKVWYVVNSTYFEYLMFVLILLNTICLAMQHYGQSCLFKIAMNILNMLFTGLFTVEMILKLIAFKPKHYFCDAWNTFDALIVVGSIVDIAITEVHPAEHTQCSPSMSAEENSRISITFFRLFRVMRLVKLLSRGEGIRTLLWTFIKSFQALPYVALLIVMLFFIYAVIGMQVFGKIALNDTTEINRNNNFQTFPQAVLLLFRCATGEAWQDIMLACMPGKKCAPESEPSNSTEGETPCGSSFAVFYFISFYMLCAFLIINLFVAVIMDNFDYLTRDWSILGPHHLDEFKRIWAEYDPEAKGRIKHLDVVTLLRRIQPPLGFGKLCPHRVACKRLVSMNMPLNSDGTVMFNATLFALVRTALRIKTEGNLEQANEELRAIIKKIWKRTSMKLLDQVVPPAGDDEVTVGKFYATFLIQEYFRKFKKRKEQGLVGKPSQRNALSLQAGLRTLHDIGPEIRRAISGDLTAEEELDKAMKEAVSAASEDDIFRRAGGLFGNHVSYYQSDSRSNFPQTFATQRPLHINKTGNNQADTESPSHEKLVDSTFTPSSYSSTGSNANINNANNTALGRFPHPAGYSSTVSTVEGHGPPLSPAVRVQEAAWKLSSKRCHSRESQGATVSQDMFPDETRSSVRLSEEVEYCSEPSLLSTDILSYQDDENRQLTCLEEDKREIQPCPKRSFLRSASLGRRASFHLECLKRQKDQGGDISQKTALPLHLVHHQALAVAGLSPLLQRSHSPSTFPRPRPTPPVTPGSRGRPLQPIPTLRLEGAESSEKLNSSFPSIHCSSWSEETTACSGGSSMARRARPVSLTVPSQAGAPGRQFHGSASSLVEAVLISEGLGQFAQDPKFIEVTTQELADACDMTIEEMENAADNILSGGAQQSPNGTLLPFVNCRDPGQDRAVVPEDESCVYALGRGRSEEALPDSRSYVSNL
T2 sequence (P54290 25-944 partner limits assumed): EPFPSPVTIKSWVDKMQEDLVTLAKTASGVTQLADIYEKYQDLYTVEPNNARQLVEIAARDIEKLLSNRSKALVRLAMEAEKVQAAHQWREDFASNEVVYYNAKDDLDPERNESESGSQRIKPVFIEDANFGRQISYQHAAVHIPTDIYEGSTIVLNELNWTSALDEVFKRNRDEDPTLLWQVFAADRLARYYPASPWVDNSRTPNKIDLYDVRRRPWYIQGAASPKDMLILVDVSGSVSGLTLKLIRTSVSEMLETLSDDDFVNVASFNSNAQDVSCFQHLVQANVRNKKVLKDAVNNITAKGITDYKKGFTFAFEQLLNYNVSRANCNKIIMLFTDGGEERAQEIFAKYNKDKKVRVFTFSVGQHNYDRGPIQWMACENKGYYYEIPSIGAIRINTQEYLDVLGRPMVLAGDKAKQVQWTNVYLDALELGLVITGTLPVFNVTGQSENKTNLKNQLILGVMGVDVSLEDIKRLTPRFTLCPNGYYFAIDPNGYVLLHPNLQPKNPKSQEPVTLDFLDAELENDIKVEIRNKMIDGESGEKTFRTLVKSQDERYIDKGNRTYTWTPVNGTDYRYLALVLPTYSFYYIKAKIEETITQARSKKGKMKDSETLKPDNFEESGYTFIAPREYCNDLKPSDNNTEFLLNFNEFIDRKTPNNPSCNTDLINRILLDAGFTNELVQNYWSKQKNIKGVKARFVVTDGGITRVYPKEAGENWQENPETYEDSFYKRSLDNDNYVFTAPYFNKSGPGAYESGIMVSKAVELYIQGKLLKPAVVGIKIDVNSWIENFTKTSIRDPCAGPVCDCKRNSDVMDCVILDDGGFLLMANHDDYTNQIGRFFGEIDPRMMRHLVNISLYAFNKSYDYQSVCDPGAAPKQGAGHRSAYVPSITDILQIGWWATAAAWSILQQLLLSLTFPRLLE
T2 sequence (P54290 945-1091 partner limits assumed): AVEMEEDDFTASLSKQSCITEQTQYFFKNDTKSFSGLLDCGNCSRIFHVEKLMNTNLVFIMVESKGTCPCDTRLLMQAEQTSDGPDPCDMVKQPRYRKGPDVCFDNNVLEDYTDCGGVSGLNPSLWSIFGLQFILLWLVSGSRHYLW
T2 sequence (P54283 whole entry partner): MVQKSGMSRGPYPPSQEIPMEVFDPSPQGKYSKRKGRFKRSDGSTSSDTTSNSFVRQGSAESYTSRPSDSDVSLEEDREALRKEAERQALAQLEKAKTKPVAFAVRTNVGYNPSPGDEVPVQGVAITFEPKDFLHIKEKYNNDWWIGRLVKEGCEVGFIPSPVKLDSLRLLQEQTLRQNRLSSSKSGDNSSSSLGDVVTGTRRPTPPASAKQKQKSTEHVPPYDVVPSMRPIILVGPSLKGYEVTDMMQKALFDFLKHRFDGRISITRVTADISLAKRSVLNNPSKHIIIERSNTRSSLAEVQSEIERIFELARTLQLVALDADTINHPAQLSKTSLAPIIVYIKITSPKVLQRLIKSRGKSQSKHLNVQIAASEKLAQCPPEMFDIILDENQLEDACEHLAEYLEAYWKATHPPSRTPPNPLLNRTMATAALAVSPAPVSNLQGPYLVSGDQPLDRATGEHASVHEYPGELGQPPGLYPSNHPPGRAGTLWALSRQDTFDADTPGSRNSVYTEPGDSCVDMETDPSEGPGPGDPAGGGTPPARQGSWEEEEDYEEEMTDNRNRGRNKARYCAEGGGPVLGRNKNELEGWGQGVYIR

COc1ccc(NC(=O)CN2CCC(N(C(C)C)S(=O)(=O)c3cccc(C(F)(F)F)c3)CC2)cc1 [Compound 42h, 2-{4-[isopropyl-(3-trifluoromethylbenzenesulfonyl)amino]-piperidin-1-yl}-N-(4-methoxyphenyl)acetamide]
IC50 [1]: 0.46 µM | IC50 [2]: 5.32 µM

CC(C)C[C@H](NCc1ccccc1)C(=O)N1CCC(N(C(C)C)S(=O)(=O)c2cccc(C(F)(F)F)c2)CC1 [Compound 88b, (S)—N-[1-(2-Benzylamino-4-methylpentanoyl)-piperidin-4-yl]-N-isopropyl-3-trifluoromethylbenzenesulfonamide]
IC50 [1]: 0.3 µM | IC50 [2]: > 20 µM

COc1ccccc1CNCC(=O)N1CCC(N(C2CC2)S(=O)(=O)c2ccc(Cl)cc2)CC1 [Compound 101, 4-Chloro-N-cyclopropyl-N-{1-[2-(2-methoxybenzylamino)acetyl]-piperidin-4-yl}-benzenesulfonamide]
IC50 [1]: 0.63 µM | IC50 [2]: 8.1 µM

COc1ccc(CNCC(=O)N2CCC(N(C(C)C)S(=O)(=O)c3cccc(C(F)(F)F)c3)CC2)cc1 [Compound 94, N-Isopropyl-N-{1-[2-(4-methoxy-benzylamino)acetyl]-piperidin-4-yl}-3-trifluoromethylbenzenesulfonamide]
IC50 [1]: 0.7 µM | IC50 [2]: 10 to 20 µM

O=C(CN1CCC(N(C2CC2)S(=O)(=O)c2cccc(C(F)(F)F)c2)CC1)Nc1ccc(C(F)(F)F)cc1F [Compound 75, 2-{4-[Cyclopropyl-(3-trifluoromethylbenzenesulfonyl)amino]-piperidin-1-yl}-N-(2-fluoro-4-trifluoromethylphenyl)-acetamide]
IC50 [1]: 0.78 µM | IC50 [2]: > 20 µM

CC(C)N(C1CCN(C(=O)CN(CCO)Cc2ccccc2)CC1)S(=O)(=O)c1cccc(C(F)(F)F)c1 [Compound 103, N-(1-{2-[Benzyl-(2-hydroxyethyl)-amino]acetyl}-piperidin-4-yl)-N-isopropyl-3-trifluoromethylbenzenesulfonamide]
IC50 [1]: 0.7 µM | IC50 [2]: 7.73 µM

CC(C)CNC(=O)CN1CCC(N(C(C)C)S(=O)(=O)c2cccc(C(F)(F)F)c2)CC1 [Compound 34, N-Isobutyl-2-{4-[isopropyl-(3-trifluoromethylbenzenesulfonyl)amino]-piperidin-1-yl}-acetamide]
IC50 [1]: 0.32 µM | IC50 [2]: 9.08 µM

O=C(Nc1cc(C(F)(F)F)cc(C(F)(F)F)c1)N1CCC(N(C2CC2)S(=O)(=O)c2cccc(C(F)(F)F)c2)CC1 [Compound 111, 4-[Cyclopropyl-(3-trifluoromethylbenzenesulfonyl)amino]-piperidine-1-carboxylic acid (3,5-bis-trifluoromethylphenyl)-amide]
IC50 [1]: 2.32 µM | IC50 [2]: > 20 µM

CC(C)N(C1CCN(C(=O)CCNc2ccc(F)cc2)CC1)S(=O)(=O)c1cccc(C(F)(F)F)c1 [N-{1-[3-(4-fluoro-phenylamino)-propionyl]-piperidin-4-yl}-N-isopropyl-3-trifluoromethyl-benzenesulfonamide]
IC50 [1]: 0.53 µM | IC50 [2]: 3.22 µM

CC(C)N(C1CCN(CCCN(c2ccc(F)cc2)c2ccc(F)cc2)CC1)S(=O)(=O)c1cccc(C(F)(F)F)c1 [Compound 8, N-(1-{3-[Bis(4-fluorophenyl)amino]propyl}piperidin-4-yl)-N-isopropyl-3-trifluoromethylbenzenesulfonamide]
IC50 [1]: 0.62 µM | IC50 [2]: > 20 µM

Cc1cccc(C)c1NC(=O)CN1CCC(N(C2CC2)S(=O)(=O)c2cccc(C(F)(F)F)c2)CC1 [Compound 58, 2-{4-[Cyclopropyl-(3-trifluoromethylbenzenesulfonyl)-amino]-piperidin-1-yl}-N-(2,6-dimethylphenyl)acetamide]
IC50 [1]: 0.31 µM | IC50 [2]: 5.92 µM

CC(C)CC(O)C(=O)N1CCC(N(C(C)C)S(=O)(=O)c2cccc(C(F)(F)F)c2)CC1 (centres unmarked) [N-[1-(2-hydroxy-4-methyl-pentanoyl)-piperidin-4-yl]-N-isopropyl-3-trifluoromethyl-benzenesulfonamide]
IC50 [1]: 0.95 µM | IC50 [2]: 5.49 µM

CC(C)N(C1CCN(CC(=O)Nc2ccc(OC(F)(F)F)cc2)CC1)S(=O)(=O)c1cccc(C(F)(F)F)c1 [Compound 42l, 2-{4-[Isopropyl-(3-trifluoromethylbenzenesulfonyl)amino]-piperidin-1-yl}-N-(4-trifluoromethoxyphenyl)-acetamide]
IC50 [1]: 0.25 µM | IC50 [2]: > 20 µM

COc1ccc(CNCCC(=O)N2CCC(N(C(C)C)S(=O)(=O)c3cccc(C(F)(F)F)c3)CC2)cc1 [N-isopropyl-N-{1-[3-(4-methoxy-benzylamino)-propionyl]-piperidin-4-yl}-3-trifluoromethyl-benzenesulfonamide]
IC50 [1]: 0.32 µM | IC50 [2]: 4.3 µM

O=C(CN1CCC(N(C2CC2)S(=O)(=O)c2cccc(C(F)(F)F)c2)CC1)Nc1ccc(F)c(C(F)(F)F)c1 [Compound 71, 2-{4-[Cyclopropyl-(3-trifluoromethylbenzenesulfonyl)amino]-piperidin-1-yl}-N-(4-fluoro-3-trifluoromethylphenyl)-acetamide]
IC50 [1]: 0.61 µM | IC50 [2]: > 20 µM

CCN(CC)C(=O)CN1CCC(N(C2CC2)S(=O)(=O)c2cccc(C(F)(F)F)c2)CC1 [Compound 38, 2-{4-[Cyclopropyl-(3-trifluoromethylbenzenesulfonyl)amino]-piperidin-1-yl}-N,N-diethylacetamide]
IC50 [1]: 0.84 µM | IC50 [2]: 3.26 µM

Cc1cccc(C)c1NCCC(=O)N1CCC(N(C(C)C)S(=O)(=O)c2cccc(C(F)(F)F)c2)CC1 [N-{1-[3-(2,6-dimethyl-phenylamino)-propionyl]-piperidin-4-yl}-N-isopropyl-3-trifluoromethyl-benzenesulfonamide]
IC50 [1]: 0.46 µM | IC50 [2]: > 20 µM

CN(C1CCN(C(=O)Nc2cc(C(F)(F)F)cc(C(F)(F)F)c2)CC1)S(=O)(=O)c1ccccc1 [Compound 112, (4-Benzenesulfonyl-methyl-amino)-piperidine-1-carboxylic acid (3,5-bis-trifluoromethylphenyl)-amide]
IC50 [1]: 0.64 µM | IC50 [2]: > 20 µM

CC(C)N(C1CCN(CC(=O)N(C)c2ccc(F)cc2)CC1)S(=O)(=O)c1cccc(C(F)(F)F)c1 [Compound 42j, N-(4-Fluorophenyl)-2-{4-[isopropyl-(3-trifluoromethyl-benzenesulfonyl)amino]-piperidin-1-yl}-N-methyl-acetamide]
IC50 [1]: 0.33 µM | IC50 [2]: > 20 µM

O=C(Nc1ccc(F)cc1)C(=O)N1CCC(N(C2CC2)S(=O)(=O)c2cccc(C(F)(F)F)c2)CC1 [Compound 22, 2-{4-[Cyclopropyl-(3-trifluoromethylbenzenesulfonyl)amino]-piperidin-1-yl}-N-(4-fluorophenyl)-2-oxo-acetamide]
IC50 [1]: 0.7 µM | IC50 [2]: > 20 µM

CCOc1cc(F)ccc1NC(=O)CN1CCC(N(C2CC2)S(=O)(=O)c2cccc(C(F)(F)F)c2)CC1 [Compound 70, 2-{4-[Cyclopropyl-(3-trifluoromethylbenzenesulfonyl)amino]-piperidin-1-yl}-N-(2-ethoxy-4-fluorophenyl)-acetamide]
IC50 [1]: 0.92 µM | IC50 [2]: > 20 µM

CC(C)N(C1CCN(CC(=O)Nc2ccc(C#N)cc2)CC1)S(=O)(=O)c1cccc(C(F)(F)F)c1 [Compound 42g, N-(4-Cyanophenyl)-2-{4-[isopropyl-(3-trifluoromethylbenzenesulfonyl)amino]-piperidin-1-yl}-acetamide]
IC50 [1]: 0.18 µM | IC50 [2]: 2.51 µM

CC(C)N(C1CCN(C(=O)CCNc2ccccc2F)CC1)S(=O)(=O)c1cccc(C(F)(F)F)c1 [N-{1-[3-(2-fluoro-phenylamino)-propionyl]-piperidin-4-yl}-N-isopropyl-3-trifluoromethyl-benzenesulfonamide]
IC50 [1]: 0.55 µM | IC50 [2]: 9.65 µM

CC(C)N(C1CCN(C(=O)CCNc2ccc(F)cc2F)CC1)S(=O)(=O)c1cccc(C(F)(F)F)c1 [N-{1-[3-(2,4-difluoro-phenylamino)-propionyl]-piperidin-4-yl}-N-isopropyl-3-trifluoromethyl-benzenesulfonamide]
IC50 [1]: 0.83 µM | IC50 [2]: > 20 µM

CN(C1CCN(CC(=O)Nc2ccc(C(F)(F)F)cc2)CC1)S(=O)(=O)c1cccc(C(F)(F)F)c1 [Compound 60, 2-{4-[Methyl-(3-trifluoromethylbenzenesulfonyl)-amino]-piperidin-1-yl}-N-(4-trifluoromethylphenyl)acetamide]
IC50 [1]: 0.99 µM | IC50 [2]: > 20 µM
